Experimental data as given in US12441703B2, “Carboxamides as modulators of sodium channels” (VERTEX PHARMACEUTICALS INCORPORATED, priority 2019, dated 2025).

These molecules were tested against human NaV 1.8 (Homo sapiens, UniProt Q9Y5Y9) (assay: E-VIPR assay for detecting and measuring NaV inhibition properties). Conditions: E-VIPR assay conducted in the presence of human serum; HEK cells expressing truncated human NaV 1.8; read-out: IC50.
Assay type: cell-based
Outline: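 HEK cells with truncated human NaV1.8 plus KIR2.1 BacMam, hexyl dye loaded 20 min, compound 30 min at room temperature, 11-point 3-fold series […], 0.625% DMSO, with or without human serum. E-VIPR biphasic stimulation at 10 Hz for 10 s; membrane-potential response read as normalized coumarin/oxonol ratio.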

Chain of human NaV 1.8 (Q9Y5Y9 whole entry, looked up, the tested form may be a part): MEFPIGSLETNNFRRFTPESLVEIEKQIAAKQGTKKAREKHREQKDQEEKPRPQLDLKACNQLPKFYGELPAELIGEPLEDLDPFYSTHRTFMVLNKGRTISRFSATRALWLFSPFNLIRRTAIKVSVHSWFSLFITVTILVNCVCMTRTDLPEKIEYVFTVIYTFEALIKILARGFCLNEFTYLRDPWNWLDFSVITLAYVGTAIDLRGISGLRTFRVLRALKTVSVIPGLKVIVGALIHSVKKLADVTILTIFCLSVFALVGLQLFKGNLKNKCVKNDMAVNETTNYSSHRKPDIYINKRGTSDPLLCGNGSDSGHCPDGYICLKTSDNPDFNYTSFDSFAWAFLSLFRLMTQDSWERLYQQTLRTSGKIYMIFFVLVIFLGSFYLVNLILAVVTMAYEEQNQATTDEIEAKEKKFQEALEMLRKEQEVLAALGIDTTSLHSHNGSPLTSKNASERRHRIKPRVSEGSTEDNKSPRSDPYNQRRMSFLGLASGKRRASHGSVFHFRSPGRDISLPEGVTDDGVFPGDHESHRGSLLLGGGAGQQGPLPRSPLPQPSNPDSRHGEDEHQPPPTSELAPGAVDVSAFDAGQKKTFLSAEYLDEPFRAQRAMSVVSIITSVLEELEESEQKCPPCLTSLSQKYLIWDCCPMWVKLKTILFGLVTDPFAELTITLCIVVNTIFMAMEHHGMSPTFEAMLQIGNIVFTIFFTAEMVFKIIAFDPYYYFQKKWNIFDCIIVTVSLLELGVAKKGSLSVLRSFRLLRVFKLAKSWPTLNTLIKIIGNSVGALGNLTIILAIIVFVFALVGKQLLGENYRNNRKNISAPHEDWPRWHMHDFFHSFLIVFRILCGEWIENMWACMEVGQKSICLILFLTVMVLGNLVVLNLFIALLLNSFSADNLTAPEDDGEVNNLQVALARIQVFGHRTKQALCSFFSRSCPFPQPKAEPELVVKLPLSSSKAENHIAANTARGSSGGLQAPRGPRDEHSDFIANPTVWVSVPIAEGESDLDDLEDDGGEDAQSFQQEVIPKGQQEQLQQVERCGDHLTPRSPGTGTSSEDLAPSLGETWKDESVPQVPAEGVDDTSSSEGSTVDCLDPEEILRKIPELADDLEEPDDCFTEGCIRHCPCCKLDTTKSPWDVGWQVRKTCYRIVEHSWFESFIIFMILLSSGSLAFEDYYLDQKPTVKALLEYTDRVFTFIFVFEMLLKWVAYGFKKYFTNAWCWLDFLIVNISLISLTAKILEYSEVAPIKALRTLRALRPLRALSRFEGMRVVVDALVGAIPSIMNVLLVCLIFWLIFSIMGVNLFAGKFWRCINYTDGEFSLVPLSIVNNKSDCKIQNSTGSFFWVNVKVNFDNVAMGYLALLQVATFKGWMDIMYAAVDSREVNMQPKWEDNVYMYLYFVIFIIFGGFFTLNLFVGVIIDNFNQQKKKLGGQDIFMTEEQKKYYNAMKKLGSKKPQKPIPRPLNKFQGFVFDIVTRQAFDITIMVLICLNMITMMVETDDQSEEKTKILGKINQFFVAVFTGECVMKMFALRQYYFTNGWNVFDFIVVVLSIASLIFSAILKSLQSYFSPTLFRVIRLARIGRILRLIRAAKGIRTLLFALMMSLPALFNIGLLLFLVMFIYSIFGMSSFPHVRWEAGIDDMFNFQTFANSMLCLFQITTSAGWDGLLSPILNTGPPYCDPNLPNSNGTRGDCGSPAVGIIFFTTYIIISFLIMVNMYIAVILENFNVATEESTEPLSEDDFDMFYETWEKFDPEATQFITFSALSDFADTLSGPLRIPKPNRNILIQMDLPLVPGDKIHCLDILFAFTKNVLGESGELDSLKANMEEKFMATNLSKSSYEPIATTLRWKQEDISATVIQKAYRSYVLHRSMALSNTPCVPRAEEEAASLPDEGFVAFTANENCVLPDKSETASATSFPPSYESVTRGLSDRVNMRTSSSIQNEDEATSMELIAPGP

Row | SMILES | IC50 [nM]
1 | COc1cc(F)ccc1-c1ccc(C(F)(F)F)c(F)c1C(=O)Nc1ccnc(C(N)=O)c1 [Compound 251, 4-[[2-fluoro-6-(4-fluoro-2-methoxy-phenyl)-3-(trifluoromethyl)benzoyl]amino]pyridine-2-carboxamide] | > 3000
2 | COc1cc(F)ccc1-c1ccc(C(F)(F)F)cc1C(=O)Nc1ccnc(C(N)=O)c1 [Compound 252, 4-[[2-(4-fluoro-2-methoxy-phenyl)-5-(trifluoromethyl)benzoyl]amino]pyridine-2-carboxamide] | > 3000
3 | COc1cc(F)ccc1-c1ccc(C(F)(F)F)cc1C(=O)Nc1ccc(F)c(C(N)=O)c1 [Compound 253, N-(3-carbamoyl-4-fluoro-phenyl)-2-(4-fluoro-2-methoxy-phenyl)-5-(trifluoromethyl)benzamide] | > 3000
4 | NC(=O)c1cc(NC(=O)c2ccc(C(F)(F)F)cc2-c2ccc(OC(F)(F)F)cc2)ccn1 [Compound 254, 4-[[2-[4-(trifluoromethoxy)phenyl]-4-(trifluoromethyl)benzoyl]amino]pyridine-2-carboxamide] | > 3000
5 | COc1cc(OC(F)(F)F)ccc1Oc1cc(C(F)(F)F)cc(Br)c1C(=O)Nc1ccnc(C(N)=O)c1 [Compound 255, 4-[[2-bromo-6-[2-methoxy-4-(trifluoromethoxy)phenoxy]-4-(trifluoromethyl)benzoyl]amino]pyridine-2-carboxamide] | > 3000
6 | NC(=O)c1cc(NC(=O)c2cc(Cl)ccc2Oc2ccc(OC(F)(F)F)cn2)ccc1F [Compound 256, 5-[[5-chloro-2-[[5-(trifluoromethoxy)-2-pyridyl]oxy]benzoyl]amino]-2-fluoro-benzamide] | > 3000
7 | COc1cc(OC(F)(F)F)ccc1Oc1ccc(C2CCC2)c(C)c1C(=O)Nc1ccnc(C(N)=O)c1 [Compound 257, 4-[[3-cyclobutyl-6-[2-methoxy-4-(trifluoromethoxy)phenoxy]-2-methyl-benzoyl]amino]pyridine-2-carboxamide] | 8
8 | COc1c(C(F)(F)F)ccc(Oc2cccc(C3CCCCC3)c2)c1C(=O)Nc1ccnc(C(N)=O)c1 [Compound 258, 4-[[6-(3-cyclohexylphenoxy)-2-methoxy-3-(trifluoromethyl)benzoyl]amino]pyridine-2-carboxamide] | > 3000
9 | COc1cc(OC(F)(F)F)ccc1Oc1ccc(F)c(F)c1C(=O)Nc1ccnc(C(N)=O)c1 [Compound 259, 4-[[2,3-difluoro-6-[2-methoxy-4-(trifluoromethoxy)phenoxy]benzoyl]amino]pyridine-2-carboxamide] | 59
10 | COc1cc(OC(F)(F)F)ccc1Oc1ccc(F)c(F)c1C(=O)Nc1cc(C(N)=O)ncc1C [Compound 260, 4-[[2,3-difluoro-6-[2-methoxy-4-(trifluoromethoxy)phenoxy]benzoyl]amino]-5-methyl-pyridine-2-carboxamide] | 66
11 | COc1cc(OC(F)(F)F)ccc1Oc1ccc(Cl)c(C)c1C(=O)Nc1ccnc(C(N)=O)c1 [Compound 261, 4-[[3-chloro-6-[2-methoxy-4-(trifluoromethoxy)phenoxy]-2-methyl-benzoyl]amino]pyridine-2-carboxamide] | 8
12 | COc1cc(OC(F)(F)F)ccc1Oc1cc(F)c(F)c(F)c1C(=O)Nc1cnc(C(N)=O)nc1 [Compound 262, 5-[[2,3,4-trifluoro-6-[2-methoxy-4-(trifluoromethoxy)phenoxy]benzoyl]amino]pyrimidine-2-carboxamide] | 50
13 | COc1cc(OC(F)(F)F)ccc1Oc1cc(OC)c(F)c(F)c1C(=O)Nc1ccnc(C(N)=O)c1 [Compound 263, 4-[[2,3-difluoro-4-methoxy-6-[2-methoxy-4-(trifluoromethoxy)phenoxy]benzoyl]amino]pyridine-2-carboxamide] | 20
14 | COc1cc(OC(F)(F)F)ccc1Oc1cc(C2CC2)c(F)c(C)c1C(=O)Nc1ccnc(C(N)=O)c1 [Compound 264, 4-[[4-cyclopropyl-3-fluoro-6-[2-methoxy-4-(trifluoromethoxy)phenoxy]-2-methyl-benzoyl]amino]pyridine-2-carboxamide] | 52
15 | COc1cc(OC(F)(F)F)ccc1Oc1cc(OC)c(Cl)c(C)c1C(=O)Nc1ccnc(C(N)=O)c1 [Compound 265, 4-[[3-chloro-4-methoxy-6-[2-methoxy-4-(trifluoromethoxy)phenoxy]-2-methyl-benzoyl]amino]pyridine-2-carboxamide] | 35
16 | COc1cc(OC(F)(F)F)ccc1Oc1cc(OC)c(Cl)c(F)c1C(=O)Nc1ccnc(C(N)=O)c1 [Compound 266, 4-[[3-chloro-2-fluoro-4-methoxy-6-[2-methoxy-4-(trifluoromethoxy)phenoxy]benzoyl]amino]pyridine-2-carboxamide] | 2.8

Row | SMILES | IC50 [nM]
17 | COc1cc(OC(F)(F)F)ccc1Oc1cc(Cl)cc(F)c1C(=O)Nc1cc(C(N)=O)[n+]([O-])cc1C [Compound 267, 4-[[4-chloro-2-fluoro-6-[2-methoxy-4-(trifluoromethoxy)phenoxy]benzoyl]amino]-5-methyl-1-oxido-pyridin-1-ium-2-carboxamide] | 84
18 | COc1cc(OC(F)(F)F)ccc1Oc1ccc(Cl)c(F)c1C(=O)Nc1cc(C(N)=O)[n+]([O-])cc1C [Compound 268, 4-[[3-chloro-2-fluoro-6-[2-methoxy-4-(trifluoromethoxy)phenoxy]benzoyl]amino]-5-methyl-1-oxido-pyridin-1-ium-2-carboxamide] | 28
19 | COc1cc(OC(F)(F)F)ccc1Oc1ccc(C(F)(F)F)c(C#N)c1C(=O)Nc1ccnc(C(N)=O)c1 [Compound 269, 4-[[2-cyano-6-[2-methoxy-4-(trifluoromethoxy)phenoxy]-3-(trifluoromethyl)benzoyl]amino]pyridine-2-carboxamide] | 37
20 | COc1cc(OC(F)(F)F)ccc1Oc1cnc(C(F)(F)F)c(C)c1C(=O)Nc1cnc(C(N)=O)nc1 [Compound 270, 5-[[5-[2-methoxy-4-(trifluoromethoxy)phenoxy]-3-methyl-2-(trifluoromethyl)pyridine-4-carbonyl]amino]pyrimidine-2-carboxamide] | 33
21 | COc1cc(OC(F)(F)F)ccc1Oc1cnc(C(F)(F)F)c(C)c1C(=O)Nc1cc(C(N)=O)ncc1C [Compound 271, N-(2-carbamoyl-5-methyl-4-pyridyl)-5-[2-methoxy-4-(trifluoromethoxy)phenoxy]-3-methyl-2-(trifluoromethyl)pyridine-4-carboxamide] | 24
22 | COc1cc(OC(F)(F)F)ccc1Oc1cc(C(F)(F)F)nc(OC)c1C(=O)Nc1cc(C(N)=O)ncc1C [Compound 272, N-(2-carbamoyl-5-methyl-4-pyridyl)-2-methoxy-4-[2-methoxy-4-(trifluoromethoxy)phenoxy]-6-(trifluoromethyl)pyridine-3-carboxamide] | 89
23 | CNC(=O)c1cc(NC(=O)c2c(Oc3ccc(OC(F)(F)F)cc3OC)cnc(C(F)(F)F)c2OC)ccn1 [Compound 273, 3-methoxy-5-[2-methoxy-4-(trifluoromethoxy)phenoxy]-N-[2-(methylcarbamoyl)-4-pyridyl]-2-(trifluoromethyl)pyridine-4-carboxamide] | 59
24 | CCc1nc(C(=O)Nc2ccnc(C(N)=O)c2)c(Oc2ccc(OC(F)(F)F)cc2OC)cc1C(F)(F)F [Compound 274, N-(2-carbamoyl-4-pyridyl)-6-ethyl-3-[2-methoxy-4-(trifluoromethoxy)phenoxy]-5-(trifluoromethyl)pyridine-2-carboxamide] | 39.3
25 | COc1cc(OC(F)(F)F)ccc1Oc1cc(C(F)(F)F)c(OC)nc1C(=O)Nc1ccnc(C(N)=O)c1 [Compound 275, N-(2-Carbamoyl-4-Pyridyl)-6-Methoxy-3-[2-Methoxy-4-(Trifluoromethoxy)Phenoxy]-5-(Trifluoromethyl)Pyridine-2-Carboxamide] | 170
26 | COc1cc(OC(F)(F)F)ccc1Oc1cc(C(F)(F)F)c(OC)cc1C(=O)Nc1ccnc(C(N)=O)c1 [Compound 276, 4-[[5-Methoxy-2-[2-Methoxy-4-(Trifluoromethoxy)Phenoxy]-4-(Trifluoromethyl)Benzoyl]Amino]Pyridine-2-Carboxamide] | 440
27 | COc1cc(OC(F)(F)F)ccc1Oc1cc(C(F)(F)F)cc(OC)c1C(=O)Nc1ccnc(C(N)=O)c1 [Compound 277, 4-[[2-Methoxy-6-[2-Methoxy-4-(Trifluoromethoxy)Phenoxy]-4-(Trifluoromethyl)Benzoyl]Amino]Pyridine-2-Carboxamide] | 170
28 | COc1cc(OC(F)(F)F)ccc1Oc1cc(C(F)(F)F)c(C)c(F)c1C(=O)Nc1ccnc(C(N)=O)c1 [Compound 278, 4-[[2-Fluoro-6-[2-Methoxy-4-(Trifluoromethoxy)Phenoxy]-3-Methyl-4-(Trifluoromethyl)Benzoyl]Amino]Pyridine-2-Carboxamide] | 3.6
29 | COc1cc(OC(F)(F)F)ccc1Oc1cc(C(F)(F)F)c(F)cc1C(=O)Nc1cc[n+]([O-])c(C(N)=O)c1 [Compound 279, 4-[[5-Fluoro-2-[2-Methoxy-4-(Trifluoromethoxy)Phenoxy]-4-(Trifluoromethyl)Benzoyl]Amino]-1-Oxido-Pyridin-1-Ium-2-Carboxamide] | 19
30 | COc1cc(OC(F)(F)F)ccc1Oc1ccc(OC(F)(F)F)c(F)c1C(=O)Nc1ccnc(C(N)=O)c1 [Compound 280, 4-[[2-Fluoro-6-[2-Methoxy-4-(Trifluoromethoxy)Phenoxy]-3-(Trifluoromethoxy)Benzoyl]Amino]Pyridine-2-Carboxamide] | 4
31 | COc1cc(OC(F)(F)F)ccc1Oc1ccc(C(F)(F)F)c(C2CC2)c1C(=O)Nc1ccnc(C(N)=O)c1 [Compound 281, 4-[[2-Cyclopropyl-6-[2-Methoxy-4-(Trifluoromethoxy)Phenoxy]-3-(Trifluoromethyl)Benzoyl]Amino]Pyridine-2-Carboxamide] | 130
32 | COc1cc(OC(F)(F)F)ccc1Oc1cc(C2CC2)c(C(F)(F)F)nc1C(=O)Nc1ccnc(C(N)=O)c1 [Compound 282, N-(2-Carbamoyl-4-Pyridyl)-5-Cyclopropyl-3-[2-Methoxy-4-(Trifluoromethoxy)Phenoxy]-6-(Trifluoromethyl)Pyridine-2-Carboxamide] | 57
